This note sets out measurements from the supplement of paper PMC10307832.

What all share (assay): relative viability (nuclei count vs DMSO), 5 days (fraction); higher = more cells survive
Compound in the assay “kb NB 142-70 + Alpelisib”: C1CSC2=C(C(=O)N1)SC3=C2C=C(C=C3)O [kb NB 142-70] + Cc1nc(NC(=O)N2CCC[C@H]2C(N)=O)sc1-c1ccnc(C(C)(C)C(F)(F)F)c1 [Alpelisib] (partner 2 µM)
A digest of the protocol:
(§1)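 The day after seeding in 1536-well plates, lung cancer cell lines were treated by pin tool with a single drug, or with a fixed anchor-drug dose together with five library-drug doses (not always all listed) in √10 steps. After 5 days, a combined fix-and-stain solution (final 0.05% Triton X-100, 1% formaldehyde, 1 ug/ml Hoechst) was added. Nuclei counted on 4× images gave relative viability as treated counts over vehicle counts, reported as the median of duplicate plates.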

Compound in assay [1]: NCC(=O)Nc1ccc(-n2nc(C(F)(F)F)cc2-c2ccc3c(ccc4ccccc43)c2)cc1 + C[C@]1(O)C[C@@H](c2nc(-c3ccc4ccc(-c5ccccc5)nc4c3)c3c(N)nccn32)C1 [Linsitinib] (partner 1 µM)
In a few lines: as §1

Compound in assay [2]: C1CSC2=C(C(=O)N1)SC3=C2C=C(C=C3)O [kb NB 142-70] + O=C(CCCCCCC(=O)Nc1ccccc1)NO [Vorinostat] (partner 1 µM)
In a few lines:
as §1

Compound in the assay “kb NB 142-70 + Foretinib”: C1CSC2=C(C(=O)N1)SC3=C2C=C(C=C3)O [kb NB 142-70] + COc1cc2c(Oc3ccc(NC(=O)C4(C(=O)Nc5ccc(F)cc5)CC4)cc3F)ccnc2cc1OCCCN1CCOCC1 [Foretinib] (partner 0.25 µM)
In a few lines:
as §1

Compound in assay [3]: NCC(=O)Nc1ccc(-n2nc(C(F)(F)F)cc2-c2ccc3c(ccc4ccccc43)c2)cc1 + CS(=O)(=O)N1CCN(Cc2cc3nc(-c4cccc5[nH]ncc45)nc(N4CCOCC4)c3s2)CC1 [Pictilisib] (partner 1 µM)
In a few lines: as §1

For UMC-11, the relative viability in the assay with kb NB 142-70 + Alpelisib (first compound 0.1 µM) was found to be 0.96; with kb NB 142-70 + Alpelisib (first compound 1 µM), 0.959; in the assay with kb NB 142-70 + Alpelisib (first compound 3.162 µM) it was 0.418; in assay [1] (first compound 0.02 µM), 0.995; in assay [1] (first compound 0.06325 µM) it was 1.03; in assay [1] (first compound 0.2 µM), 1.16. Besides, the relative viability in assay [1] (first compound 0.6325 µM) came out at 0.966; in assay [1] (first compound 2 µM) it was 0.918; in assay [2] (first compound 0.1 µM), 0.39; in assay [2] (first compound 1 µM) it was 0.316; in assay [2] (first compound 3.162 µM), 0.223; in the assay with kb NB 142-70 + Foretinib (first compound 0.1 µM), 0.934. Moreover, the relative viability in the assay with kb NB 142-70 + Foretinib (first compound 1 µM) was 0.92; with kb NB 142-70 + Foretinib (first compound 3.162 µM), 0.64; in assay [3] (first compound 0.02 µM), 0.835; in assay [3] (first compound 0.06325 µM) it was 0.866; in assay [3] (first compound 0.2 µM), 0.858; in assay [3] (first compound 0.6325 µM), 0.732. In assay [3] (first compound 2 µM), the relative viability was 0.828.
